Results on two compounds are retold here after patent publication US9347013B2, “Natural oil derivative based thickener components used in grease compositions and processes for making such compositions” (Elevance Renewable Sciences, Inc., priority 2014, dated 2016).

Molecules are shown by their SMILES.

Series [1] in a line: Log P (oil solubility) of grease complexing agents. To be noted: more oil soluble than azelaic acid.

The logP is a log measure of how a compound divides between an organic and an aqueous phase. Read a low logP as lower lipophilicity.

In “physchem”, `O=C(O)CCCCCCCC(=O)O` [Azelaic (C9), azelaic acid, reference compound] returned a logP of 2.01.

Regarding `O=C(O)CCCCCCCCCCCCCCCCC(=O)O` [ERS ODDA (C18), octadecanedioic acid], the logP in “physchem” stood at 3. In series [1], the “oil solubility relative to azelaic acid” value is listed as “about 1.5 times”.
